{
  "source": "patent US20260265694A1",
  "about": "“USE OF A VITISIN COMPOUND FOR THE PRODUCTION OF HEMATOPOIETIC CELLS” (ETABLISSEMENT FRANCAIS DU SANG, priority 2022, published 2026)",
  "format_in_all_cases": "cell-based, human",
  "key": {"[1]": {"system": "peripheral blood CD34+ cells", "experiment": "ERYTHRO 1 PROTOCOL: simplified two-phase erythrocyte differentiation", "details": "versus CTRL, FIG. 3", "description": "b. ERYTHRO 1 PROTOCOL: Simplified Ex Vivo Erythrocyte Differentiation Protocol (in Two Phases) This protocol was applied to CD34^+ cells from peripheral and placental blood, pre-stimulated SP cells, CMP cells and MEP cells. For this culture, the cell populations of interest are isolated as indicated previously and cultured in IMDM culture medium supplemented as follows: • 15% BIT 9500 (Stem Cell Technologies). […] The various cell populations were seeded in 24-well plates at 200 000 cells/mL for CD34^+, CMPs and MEPs. All of the cells recovered after the “Amplification/pre-stimulation” step for SP cells (i.e. 5000-50 000 cells) were cultured in 24-well plates. This culture includes two phases: • Phase 1: D0 to D6, EPO-free culture • Phase 2: from D6, addition of 2 IU/ML EPO and extension of culturing up to D21 minimum and D28 maximum.\nIn order to test the effect of vitisin B in this context, the culturing is performed in the absence and presence of vitisin B: • CTRL condition: Absence of vitisin B throughout the entire protocol. • Test condition: Presence of vitisin B at 5, 10, 15, 20 or 30 μM for the entire duration of the protocol (phase 1+phase 2). During the culture protocol, the differentiation product is analyzed by quantifying proliferation (counting) and analyzing erythrocyte differentiation markers by means of flow cytometry, using the markers CD71 and CD235a. c. ERYTHRO 2 PROTOCOL: Three-Phase Erythrocyte Differentiation Protocol\nDuring and at the end of the various erythrocyte differentiation protocols, cell proliferation and cell differentiation are analyzed. Cell proliferation is evaluated by counting of cells on Malassez slides, with Trypan blue exclusion of dead cells. The different populations and culture conditions are also analyzed by flow cytometry, so as to observe the appearance of erythrocyte differentiation markers and thus cell differentiation kinetics. […] After resuspension of the cell pellets in PBS, the cells are analyzed by flow cytometry (FACSCantoll, Becton Dickinson, San Jose, CA). […]"}, "[2]": {"system": "CD34+ cells from peripheral blood", "experiment": "AMPLIFICATION PROTOCOL: ex vivo amplification of hematopoietic progenitors", "description": "This is a strategy for the amplification of hematopoietic progenitors. The culture is formed as follows: CD34^+ cells from peripheral blood are isolated (as indicated in section II.A.1), and cultured for 12 days in Stem Span II medium (Stem Cell Technologies) supplemented with cytokines: SCF 100 ng/mL, FLT3-L 100 ng/mL, TPO 20 ng/mL, G-CSF 10 ng/mL. The amplification product is analyzed by quantification of proliferation (count on Malassez slides) and phenotypic analysis of CD34^+ cell subpopulations by flow cytometry. […] Vitisin B is also compared with the following stilbene-type molecules at 10 μM concentration: Resveratrol, Pallidol, E-Viniferin, Ampelopsin, Oxyresveratrol, Picateatannol, Gnetol\nAt the end of the hematopoietic cell amplification protocol, an analysis of cell proliferation and amplification of immature and committed cell populations is performed.\nCell proliferation is evaluated by counting cells on Malassez slides with Trypan blue exclusion of dead cells.\nThe amplification of cell populations is based on a phenotypic analysis relating to the evolution of the expression of membrane markers CD34 and CD133 by flow cytometry. These markers make it possible to define more or less immature cell populations organized hierarchically as follows: CD34^+CD133^+->CD34^+CD133^neg->CD34^negCD133^neg. To this end, cells are incubated with anti-CD34 (1:100,000) (BD Pharmingen) and anti-CD133 (1:100,000) (BD Pharmingen) antibodies for 15 minutes. The cells are then rinsed with a PBS solution and centrifuged (430×g, 10 min, 4° C.). After resuspension of the cell pellets in PBS, the cells are analyzed by flow cytometry (FACSCantoll, Becton Dickinson, San Jose, CA).\nThe proportions of each phenotypic population thus observed and the total amount of cells make it possible to calculate the rate of amplification of the most immature cells (CD34^+CD133+) compared with the amplification of more committed progenitors (CD34^+CD133^neg and CD34^negCD133^neg)."}, "[3]": {"system": "BFU-E and CFU-E erythrocyte progenitors from placental blood CD34+ cells", "experiment": "CFC clonogenic assay of BFU-E and CFU-E during phase 1 of ERYTHRO 2", "details": "10 μM", "description": "• CTRL condition: cells are cultured for 7 days in the absence of vitisin B. • TEST condition: cells are cultured for 7 days in the presence of vitisin B at 10 μM.\nTo this end, the CFC (Colony Forming Cells) test is used. Committed progenitors are capable of generating colonies after culture in a semisolid medium composed of methylcellulose and supplemented with cytokines. Thus, committed progenitors (here BFU-Es and CFU-Es) produced during erythrocyte cultures can be counted.\nThis analysis of BFU-E and CFU-E production was performed only during phase 1 of PROTOCOL 2. Cells grown and harvested on days 4, 8 and 11 of phase 1 were seeded in a ready-to-use cytokine-supplemented methylcellulose H4034 kit (Stem Cell Technology, Meylan, France) at concentrations of 150 cells/[…] H4034 for day 4 and 300 cells/250"}},
  "data": [
    {"smiles": "Oc1ccc(C2Oc3ccc(/C=C/c4cc(O)cc5c4[C@H](c4cc(O)cc(O)c4)[C@@H](c4ccc(O)cc4)O5)cc3C2c2cc(O)cc3c2C(c2cc(O)cc(O)c2)C(c2ccc(O)cc2)O3)cc1", "note": "(stereo in doubt) [vitisin B, 5-[(2R,2'S,3R,3'S)-5-[(1E)-2-[(2S,3S)-3-(3,5-Dihydroxyphenyl)-2,3-dihydro-6-hydroxy-2-(4-hydroxyphenyl)-4-benzofuranyl]ethenyl]-2,2′,3,3′-tetrahydro-6′-hydroxy-2,2′-bis(4-hydroxyphenyl)[3,4′-bibenzofuran]-3′-yl]-1,3-benzenediol]", "values": [
      {"measurement": "CD71 expression", "setting": "[1]; flow cytometry", "value": "more rapid decline"},
      {"measurement": "acquisition of CD235a (GPA)", "setting": "[1]; flow cytometry", "value": "earlier acquisition"},
      {"measurement": "differentiation of CD34+ cells into erythrocyte precursors", "setting": "[1]; vitisin B 5-30 μM for the entire protocol", "value": "faster and greater differentiation"},
      {"measurement": "amplification of the total amount of progenitors of the CD34+ phenotype", "setting": "[2]; 10 μM, 12-day culture, FIG. 1", "value": "up to 250%"},
      {"measurement": "amplification of the CD34+CD133neg subpopulation (erythrocyte potential)", "setting": "[2]; 10 μM, FIG. 1", "value": "induces amplification"},
      {"measurement": "effect on the proportion and total amount of CD34+CD133neg cells", "setting": "[2]; 10 μM, FIG. 2", "value": "convincing effect"},
      {"measurement": "effect of increasing the dose on total CD34+ and CD34+CD133neg populations", "setting": "[2]; 50 μM versus 10 μM", "value": "no additional effect"},
      {"measurement": "appearance of primitive erythrocyte progenitors (BFU-Es)", "setting": "[3]; clonogenic assay at D4, D8, D11, FIG. 7A", "value": "accelerated the appearance"},
      {"measurement": "appearance of more differentiated progenitors (CFU-Es)", "setting": "[3]; clonogenic assay at D4, D8, D11, FIG. 7B", "value": "accelerated the appearance"}
    ]}
  ]
}
